Source: patent US20200368310A1, “TREATMENT WITH NMDA RECEPTOR MODULATORS” (Naurex, Inc, priority 2017, published 2020)
Residues, ends and D or L forms follow the SMILES beside them.

Test system: Male rats
Assay: Sleep-wake cycle analysis by telemetric EEG recording in rats
Format: in vivo, rat
Conditions: for percentage of active waking: FIG. 4B
Protocol: Male rats were anesthetized and surgically implanted with 2 surface electrodes in the frontoparietal cortex and 2 depth electrodes in the CA1 region of the hippocampus (AP +5.0 mm, L ±2.5 mm, V +7.0 mm). After ≥10 days recovery, telemetric transmitters were connected to electrodes for electroencephalographic (EEG) recordings. On the day of experiment, rats were injected at the beginning of the light phase with rapastinel (3, 10, or 30 mg/kg, IV), ketamine (30 mg/kg, IP), or the positive control zolpidem (12 mg/kg, PO) using a treatment schedule based on a cross-over design (n=9-10/dose/group) in which rats received zolpidem or rapastinel at session 1 and then rapastinel and/or ketamine at sessions 2-4. Physiological saline was used as the vehicle control
Sleep-wake cycles were measured continuously following rapastinel treatment for the next 23 hours and were analyzed based on a spectral power analysis. Latencies to first occurrence of SWS and REM sleep, as well as percent time spent in SWS, REM sleep, and wakefulness, were calculated for the total recording sessions (23 hours), the half cycles (0-12 and 12-23 hours), and 5 time segments (0-4, 4-8, 8-12, 12-18, and 18-23 hours). Depth of SWS (defined as the ratio between alpha and delta spectral power) was also calculated. Differences between vehicle and test drugs were calculated for all variables, for each animal, and for the means of the animals per treatment group, and analyzed using a paired t-test

## C[C@@H](O)[C@H](N)C(=O)N1CCC[C@H]1C(=O)N1CCC[C@H]1C(=O)N[C@H](C(N)=O)[C@@H](C)O [Rapastinel, rapastinel] (H-TPPT-NH2)
Rapastinel 30 mg/kg IV, 8-12 hours post-dose, P<0.01
  percentage of active waking: small but significant decrease
Rapastinel 30 mg/kg IV, 18-23 hours post-dose, P<0.05
  percentage of active waking: small but significant decrease
rapastinel, all doses and periods except 8-12 and 18-23 hours at 30 mg/kg
  percentage of active waking: no effect

## CNC1(c2ccccc2Cl)CCCCC1=O (stereo not drawn) [Ketamine, ketamine]
Ketamine 30 mg/kg IP, 0-4 hours post-dose, P<0.001
  alpha/delta ratio (depth of SWS): concomitant decrease
Ketamine 30 mg/kg IP, 0-4 hours post-dose, P<0.001, FIG. 2A
  duration of SWS: decreased
Ketamine 30 mg/kg IP, 0-4 hours post-dose, P<0.001, FIG. 3
  duration of REM sleep: decreased
Ketamine 30 mg/kg IP, 12-23 hours post-dose, P<0.01, FIG. 4A
  waking (duration): small but significant decrease
Ketamine 30 mg/kg IP, 12-23 hours post-dose, P<0.05, FIG. 3
  REM sleep (duration): compensatory increase
Ketamine 30 mg/kg IP, 12-23 hours post-dose, P<0.05
  percentage of active waking: significantly decreased
Ketamine 30 mg/kg IP, first 4 hours post-dose, P<0.001, FIG. 4A
  duration of waking: significantly increased

## Cc1ccc(-c2nc3ccc(C)cn3c2CC(=O)N(C)C)cc1 [Zolpidem, zolpidem]
Zolpidem 12 mg/kg PO, 0-12 hours post-dose, P<0.05
  percentage of active waking: significantly decreased
Zolpidem 12 mg/kg PO, 4-8 hours post-dose, P<0.05, FIG. 3
  duration of REM sleep: significantly decreased
